Laboratory results reported in PMC6272684, “Synthesis, Antiproliferative and Antifungal Activities of 1,2,3-Triazole-Substituted Carnosic Acid and Carnosol Derivatives” (Molecules, 2015).
Converted amounts (≈) assume the structure as drawn.

Experiments:
C. albicans ATCC 10231 = test: Antifungal broth microdilution (CLSI M27-A3), growth inhibition; assay type: cell-based, Candida albicans
Protocol: (§1) The antifungal properties of compounds 1–24 against two clinical important fungal species, C. albicans ATCC 10231 and C. neoformans ATCC 32264 were investigated. Results were expressed as the percentages of inhibition of each fungus in the range 250–3.9 μg∙mL^−1 by using the standardized microbroth dilution method M-27A3 of Clinical and Laboratory Standards Institute which assures reliable and reproducible results.
(§2) For the antifungal evaluation, standardized strains from the American Type Culture Collection (ATCC), Rockville, MD, USA, were used. The microorganisms included yeasts (Candida albicans ATCC 10231 and Cryptococcus neoformans ATCC 32264). Strains were grown on Sabouraud-chloramphenicol agar slants for 48 h at 30 °C, maintained on slopes of Sabouraud-dextrose agar (SDA, Oxoid), and subcultured every 15 days to prevent pleomorphic transformations. Inocula of cell or spore suspensions were obtained according to reported procedures and adjusted to 1–5 × 10^3 cells/spores with colony forming units (CFU)/mL [29].
(§3) Broth microdilution techniques were performed in 96-well microplates according to the Clinical and Laboratory Standards Institute Reference Method for Broth Dilution Antifungal Susceptibility Testing of Yeasts, Approved Standard M27-A3 [29]. For the assay, compound test wells (CTWs) were prepared with stock solutions of each compound in DMSO (maximum concentration ≤1%), diluted with RPMI-1640, to final concentrations of 250–3.9 μg∙mL^−1. An inoculum suspension (100 μL) was added to each well (final volume in the well = 200 μL). A growth control well (GCW) (containing medium, inoculum, and the same amount of DMSO used in a CTW, but compound-free) and a sterility control well (SCW) (sample, medium, and sterile water instead of inoculum) were included for each fungus tested. Microtiter trays were incubated in a moist, dark chamber at 30 °C for 48 h for both yeasts. Microplates were read in a VERSA Max microplate reader (Molecular Devices, Sunnyvale, CA, USA). Amphotericin B (Sigma-Aldrich) was used as positive control. Tests were performed in triplicate. Reduction of growth for each compound concentration was calculated as follows: % of inhibition = 100 − (OD 405 CTW − OD 405 SCW)/(OD 405 GCW − OD 405 SCW). The means ± SEM were the results of triplicate tests. Three endpoints were defined from the assay explained above and the dose-response curves. Minimum Inhibitory concentration (MIC) resulting in total fungal growth inhibition was named MIC100 while MIC50 was defined as the minimum concentration that inhibits 50% of the fungal growth.

C. neoformans ATCC 32264 = test: as above; assay type: cell-based, Cryptococcus neoformans
Protocol: as §1, §2, §3

Row | SMILES | Inhibition percentage against C. albicans ATCC 10231 (C. albicans ATCC 10231; 3.9 μg∙mL^−1, 48 h) [%] | Inhibition percentage against C. albicans ATCC 10231 (C. albicans ATCC 10231; 7.8 μg∙mL^−1, 48 h) [%] | Inhibition percentage against C. albicans ATCC 10231 (C. albicans ATCC 10231; 15.6 μg∙mL^−1, 48 h) [%] | Inhibition percentage against C. albicans ATCC 10231 (C. albicans ATCC 10231; 62.5 μg∙mL^−1, 48 h) [%] | Inhibition percentage against C. albicans ATCC 10231 (C. albicans ATCC 10231; 125 μg∙mL^−1, 48 h) [%] | Inhibition percentage against C. albicans ATCC 10231 (C. albicans ATCC 10231; 250 μg∙mL^−1, 48 h) [%] | Inhibition percentage against C. albicans ATCC 10231 (C. albicans ATCC 10231; 31. μg∙mL^−1, 48 h) [%] | MIC50 (minimum concentration to inhibit 50% of fungal growth), C. albicans (C. albicans ATCC 10231; C. albicans ATCC 10231) [µg/mL] | Inhibition percentage against C. neoformans ATCC 32264 (C. neoformans ATCC 32264; 3.9 μg∙mL^−1, 48 h) [%] | Inhibition percentage against C. neoformans ATCC 32264 (C. neoformans ATCC 32264; 7.8 μg∙mL^−1, 48 h) [%] | Inhibition percentage against C. neoformans ATCC 32264 (C. neoformans ATCC 32264; 15.6 μg∙mL^−1, 48 h) [%] | Inhibition percentage against C. neoformans ATCC 32264 (C. neoformans ATCC 32264; 31.2 μg∙mL^−1, 48 h) [%] | Inhibition percentage against C. neoformans ATCC 32264 (C. neoformans ATCC 32264; 62.5 μg∙mL^−1, 48 h) [%] | Inhibition percentage against C. neoformans ATCC 32264 (C. neoformans ATCC 32264; 125 μg∙mL^−1, 48 h) [%] | Inhibition percentage against C. neoformans ATCC 32264 (C. neoformans ATCC 32264; 250 μg∙mL^−1, 48 h) [%] | MIC50 (minimum concentration to inhibit 50% of fungal growth), C. neoformans (C. neoformans ATCC 32264; C. neoformans ATCC 32264) [µg/mL] | also measured
1 | C[C@@H]1[C@H](O)[C@@H](C)/C=C/C=C/C=C/C=C/C=C/C=C/C=C/[C@H](O[C@@H]2O[C@H](C)[C@@H](O)[C@H](N)[C@@H]2O)C[C@@H]2O[C@](O)(C[C@@H](O)C[C@@H](O)[C@H](O)CC[C@@H](O)C[C@@H](O)CC(=O)O[C@H]1C)C[C@H](O)[C@H]2C(=O)O [Amph B, amphotericin B, reference compound] | – | – | – | – | – | – | – | – | – | – | – | – | – | – | – | – | inhibition at 3.9 µg/mL (C. albicans ATCC 10231; Candida albicans, ATCC10231, 3.9 μg∙mL^−1, 48 h, read-out: Inhibition percentage against C. albicans ATCC 10231): 100%; inhibition at 7.8 µg/mL (C. albicans ATCC 10231; Candida albicans, ATCC10231, 7.8 μg∙mL^−1, 48 h, read-out: Inhibition percentage against C. albicans ATCC 10231): 100%; inhibition at 15.6 µg/mL (C. albicans ATCC 10231; Candida albicans, ATCC10231, 15.6 μg∙mL^−1, 48 h, read-out: Inhibition percentage against C. albicans ATCC 10231): 100%; inhibition at 62.5 µg/mL (C. albicans ATCC 10231; Candida albicans, ATCC10231, 62.5 μg∙mL^−1, 48 h, read-out: Inhibition percentage against C. albicans ATCC 10231): 100%; inhibition at 125 µg/mL (C. albicans ATCC 10231; Candida albicans, ATCC10231, 125 μg∙mL^−1, 48 h, read-out: Inhibition percentage against C. albicans ATCC 10231): 100%; inhibition at 250 µg/mL (C. albicans ATCC 10231; Candida albicans, ATCC10231, 250 μg∙mL^−1, 48 h, read-out: Inhibition percentage against C. albicans ATCC 10231): 100%; MIC50 (C. albicans ATCC 10231; Candida albicans, ATCC10231, C. albicans ATCC 10231, read-out: MIC50 (minimum concentration to inhibit 50% of fungal growth), C. albicans): 0.25 µg/mL (≈ 0.271 µM); inhibition at 3.9 µg/mL (C. neoformans ATCC 32264; Cryptococcus neoformans, ATCC32264, 3.9 μg∙mL^−1, 48 h, read-out: Inhibition percentage against C. neoformans ATCC 32264): 100%; inhibition at 7.8 µg/mL (C. neoformans ATCC 32264; Cryptococcus neoformans, ATCC32264, 7.8 μg∙mL^−1, 48 h, read-out: Inhibition percentage against C. neoformans ATCC 32264): 100%; inhibition at 15.6 µg/mL (C. neoformans ATCC 32264; Cryptococcus neoformans, ATCC32264, 15.6 μg∙mL^−1, 48 h, read-out: Inhibition percentage against C. neoformans ATCC 32264): 100%; inhibition at 31.2 µg/mL (C. neoformans ATCC 32264; Cryptococcus neoformans, ATCC32264, 31.2 μg∙mL^−1, 48 h, read-out: Inhibition percentage against C. neoformans ATCC 32264): 100%; inhibition at 62.5 µg/mL (C. neoformans ATCC 32264; Cryptococcus neoformans, ATCC32264, 62.5 μg∙mL^−1, 48 h, read-out: Inhibition percentage against C. neoformans ATCC 32264): 100%; inhibition at 125 µg/mL (C. neoformans ATCC 32264; Cryptococcus neoformans, ATCC32264, 125 μg∙mL^−1, 48 h, read-out: Inhibition percentage against C. neoformans ATCC 32264): 100%; inhibition at 250 µg/mL (C. neoformans ATCC 32264; Cryptococcus neoformans, ATCC32264, 250 μg∙mL^−1, 48 h, read-out: Inhibition percentage against C. neoformans ATCC 32264): 100%; MIC50 (C. neoformans ATCC 32264; Cryptococcus neoformans, ATCC32264, C. neoformans ATCC 32264, read-out: MIC50 (minimum concentration to inhibit 50% of fungal growth), C. neoformans): 0.5 µg/mL (≈ 0.541 µM)
2 | COC(=O)C12CCCC(C)(C)C1CCc1cc(C(C)C)c(OC(=O)CCCc3cn(Cc4ccc([N+](=O)[O-])cc4)nn3)c(OC(=O)CCCc3cn(Cc4ccc([N+](=O)[O-])cc4)nn3)c12 (stereo not drawn) [Compound 16, Methyl(11,12-O-(4-(1-(4-nitrobenzyl)-1H-1,2,3-triazol-4-yl)-butanoyloxy)-abieta-8,11,13-triene)-20-oate] | 0.0 | 0.8 ± 0.1 | 2.3 ± 0.1 | 7.2 ± 0.1 | 11.7 ± 0.5 | 21.1 ± 2.4 | 3.4 ± 0.5 | >250 | 0.0 | 3.5 ± 0.4 | 5.0 ± 0.4 | 7.9 ± 0.1 | 14.5 ± 0.2 | 35.5 ± 0.4 | 36.9 ± 0.8 | >250 | –
3 | COC(=O)C12CCCC(C)(C)C1CCc1cc(C(C)C)c(OC(=O)CCCc3cn(Cc4ccccc4)nn3)c(OC(=O)CCCc3cn(Cc4ccccc4)nn3)c12 (stereo not drawn) [Compound 12, Methyl(11,12-O-(4-(1-benzyl-1H-1,2,3-triazol-4-yl)-butanoyloxy)-abieta-8,11,13-triene)-20-oate] | 3.4 ± 0.3 | 3.6 ± 0.4 | 5.6 ± 1.9 | 14.9 ± 1.1 | 27.9 ± 0.1 | 50.0 ± 5.0 | 9.3 ± 2.6 | 250 | 0.0 | 0.0 | 7.7 ± 1.6 | 9.6 ± 0.8 | 17.3 ± 0.2 | 67.5 ± 0.7 | 63.1 ± 2.1 | 125 | –
4 | COC(=O)C12CCCC(C)(C)C1CCc1cc(C(C)C)c(OC(=O)CCCc3cn(CSc4ccccc4)nn3)c(OC(=O)CCCc3cn(CSc4ccccc4)nn3)c12 (stereo not drawn) [Compound 10, Methyl(11,12-O-(4-(((1-phenylthio)methyl)-1H-1,2,3-triazol-4-yl)-butanoyloxy)-abieta-8,11,13-triene)-20-oate] | 1.3 ± 1.3 | 2.8 ± 0.1 | 3.9 ± 0.9 | 10.1 ± 0.9 | 18.8 ± 0.4 | 35.0 ± 0.8 | 5.1 ± 1.3 | >250 | 0.0 | 11.3 ± 0.5 | 14.4 ± 0.8 | 18.6 ± 1.5 | 19.1 ± 1.8 | 42.9 ± 2.0 | 63.9 ± 2.9 | 250 | –
